pKi: −log10 of the molar value. Bounds are passed on as bounds.

The target in this assay is HIV protease (Human immunodeficiency virus type 1 group M subtype B, UniProt P04585). Nature of the assay: biochemical.
Excerpt: Enzymatic Assay for Determining the Inhibition Constant (Ki) of Synthetic Compounds Targeting the HIV Protease
This is a fluorometric assay based on the cleavage by protease of a substrate carrying a donor group (EDANS) and an acceptor group (DABCYL) on each side of the cleavage site, interacting together through fluorescence resonance energy transfer (FRET) as described by Matayoshi et al. (Science 247:954-954, 1990).
After calculation of Vo and Vi, the inhibition constant (Ki) of the compound is determined using the equation of Henderson: [formula]
where Vo=the enzyme's initial velocity
Vi=the enzyme velocity in the presence of the inhibitory compound,
[I]=inhibitor concentration, [S]=substrate concentration,
Km=Michaelis-Menten constant and Kiapp=apparent Ki
Graphs are traced and the Ki determined using GraphPad Prism software v.
As for `CCCN[C@@H](Cc1ccc2ccccc2c1)C(=O)NCCCC[C@@H](CO)N(CC(C)C)S(=O)(=O)c1ccc(N)cc1` [Example 64, (2S,5S)-N-{5-[(4-Amino-benzenesulfonyl)-isobutyl-amino]-6-hydroxy-hexyl}-3-naphthalen-2-yl-2-propylamino-propionamide], the pKi is 8.34.

In turn, `CCN[C@@H](Cc1ccc2ccccc2c1)C(=O)NCCCC[C@@H](CO)N(CC(C)C)S(=O)(=O)c1ccc(N)cc1` [Example 65, (2S,5S)-N-{5-[(4-Amino-benzenesulfonyl)-isobutyl-amino]-6-hydroxy-hexyl}-2-ethylamino-3-naphthalen-2-yl-propionamide] showed a pKi of 8.21.

The compound `CCCCN[C@@H](Cc1ccc2ccccc2c1)C(=O)NCCCC[C@@H](CO)N(CC(C)C)S(=O)(=O)c1ccc(N)cc1` [Example 68, (2S,5S)-N-{5-[(4-Amino-benzenesulfonyl)-isobutyl-amino]-6-hydroxy-hexyl}-2-butylamino-3-naphthalen-2-yl-propionamide] showed a pKi of 8.24.

For `CC(C)CN([C@H](CO)CCCCNC(=O)[C@H](Cc1ccc2ccccc2c1)NCC(C)(C)C)S(=O)(=O)c1ccc(N)cc1` [Example 69, (2S,5S)-N-{5-[(4-Amino-benzenesulfonyl)-isobutyl-amino]-6-hydroxy-hexyl}-2-(2,2-dimethyl-propylamino)-3-naphthalen-2-yl-propionamide], the pKi is 7.66.

`CC(C)CN([C@H](CO)CCCCNC(=O)[C@H](Cc1ccc2ccccc2c1)NCc1ccccn1)S(=O)(=O)c1ccc(N)cc1` [Example 70, (2S,5S)-N-{5-[(4-Amino-benzenesulfonyl)-isobutyl-amino]-6-hydroxy-hexyl}-3-naphthalen-2-yl-2-[(pyridin-2-ylmethyl)-amino]-propionamide] had a pKi of 8.31.

Regarding `CC(C)CN([C@H](CO)CCCCNC(=O)[C@@H](N)C(c1ccccc1)c1ccccc1)S(=O)(=O)c1ccc(N)cc1` [Example 72, (2S,5S)-2-Amino-N-{5-[(4-amino-benzenesulfonyl)-isobutyl-amino]-6-hydroxy-hexyl}-3,3-diphenyl-propionamide], the pKi was 8.12.

`CC(C)CN([C@H](CO)CCCCNC(=O)[C@@H](N)Cc1ccc2ccccc2c1)S(=O)(=O)c1ccc(F)c(N)c1` [Example 81, (2S,5S)-2-Amino-N-{5-[(3-amino-4-fluoro-benzenesulfonyl)-isobutyl-amino]-6-hydroxy-hexyl}-3-naphthalen-2-yl-propionamide] gave a pKi greater than 8.42.

The compound `COC(=O)N[C@@H](Cc1ccc2ccccc2c1)C(=O)NCCCC[C@@H](CO)N(CC(C)C)S(=O)(=O)c1ccc(F)c(N)c1` [Example 82, (1S,5S)-(1-{5-[(3-Amino-4-fluoro-benzenesulfonyl)-isobutyl-amino]-6-hydroxy-hexylcarbamoyl}-2-naphthalen-2-yl-ethyl)-carbamic Acid Methyl Ester] had a pKi greater than 8.42.

Compound `CC(C)CN([C@H](CO)CCCCNC(=O)[C@H](Cc1ccc2ccccc2c1)NC(=O)c1cccnc1)S(=O)(=O)c1ccc(F)c(N)c1` [Example 83] showed a pKi greater than 8.42.

Compound `CC(C)CN([C@H](CO)CCCCNC(=O)[C@H](Cc1ccc2ccccc2c1)NC(=O)c1ccncc1)S(=O)(=O)c1ccc(F)c(N)c1` [Example 84, (1S,5S)-N-(1-{5-[(3-Amino-4-fluoro-benzenesulfonyl)-isobutyl-amino]-6-hydroxy-hexylcarbamoyl}-2-naphthalen-2-yl-ethyl)-isonicotinamide] showed a pKi greater than 8.42.

Consider `CC(C)CN([C@H](CO)CCCCNC(=O)[C@H](Cc1ccc2ccccc2c1)NC(=O)C1CCOC1)S(=O)(=O)c1ccc(F)c(N)c1` (stereo partly drawn) [Example 85, (1S,5S)-Tetrahydro-furan-3-carboxylic Acid (1-{5-[(3-Amino-4-fluoro-benzenesulfonyl)-isobutyl-amino]-6-hydroxy-hexylcarbamoyl}-2-naphthalen-2-yl-ethyl)-amide], for which the pKi is greater than 8.42.

`CC(C)CN([C@H](CO)CCCCNC(=O)[C@H](Cc1ccc2ccccc2c1)NC(=O)N(C)C)S(=O)(=O)c1ccc(F)c(N)c1` [Example 86, (2S,5S)-N-{5-[(3-Amino-4-fluoro-benzenesulfonyl)-isobutyl-amino]-6-hydroxy-hexyl}-2-(3,3-dimethyl-ureido)-3-naphthalen-2-yl-propionamide] had a pKi greater than 8.42.

As to `CC(C)CN([C@H](CO)CCCCNC(=O)[C@H](Cc1ccc2ccccc2c1)NC(=O)C1CC1)S(=O)(=O)c1ccc(F)c(N)c1` [Example 87, (1S,5S)-Cyclopropanecarboxylic Acid (1-{5-[(3-Amino-4-fluoro-benzenesulfonyl)-isobutyl-amino]-6-hydroxy-hexylcarbamoyl}-2-naphthalen-2-yl-ethyl)-amide], the negative-log Ki (pKi) is greater than 8.42.

`CC(C)CN([C@H](CO)CCCCNC(=O)[C@H](Cc1ccc2ccccc2c1)NC(=O)C1CCCCC1)S(=O)(=O)c1ccc(F)c(N)c1` [Example 88, (1S,5S)-Cyclohexanecarboxylic Acid (1-{5-[(3-Amino-4-fluoro-benzenesulfonyl)-isobutyl-amino]-6-hydroxy-hexylcarbamoyl}-2-naphthalen-2-yl-ethyl)-amide]: the pKi is greater than 8.42.

As to `CC(=O)N[C@@H](Cc1ccc2ccccc2c1)C(=O)NCCCC[C@@H](CO)N(CC(C)C)S(=O)(=O)c1ccc(F)c(N)c1` [Example 89, (2S,5S)-2-Acetylamino-N-{5-[(3-amino-4-fluoro-benzenesulfonyl)-isobutyl-amino]-6-hydroxy-hexyl}-3-naphthalen-2-yl-propionamide], the pKi was greater than 8.42.

In turn, `CC(C)CN([C@H](CO)CCCCNC(=O)[C@H](Cc1ccc2ccccc2c1)NC(=O)OC(C)(C)C)S(=O)(=O)c1ccc(F)c(N)c1` [Example 90, (1S,5S)-(1-{5-[(3-Amino-4-fluoro-benzenesulfonyl)-isobutyl-amino]-6-hydroxy-hexylcarbamoyl}-2-naphthalen-2-yl-ethyl)-carbamic Acid tert-Butyl Ester] showed a pKi of 8.40.

Take `CC(C)CN([C@H](CO)CCCCNC(=O)[C@H](Cc1ccc2ccccc2c1)NC(=O)OC(C)(C)C)S(=O)(=O)c1ccc(N)c(F)c1` [Example 91, (1S,5S)-(1-{5-[(4-Amino-3-fluoro-benzenesulfonyl)-isobutyl-amino]-6-hydroxy-hexylcarbamoyl}-2-naphthalen-2-yl-ethyl)-carbamic Acid tert-Butyl Ester]: the pKi was greater than 8.42.

With `CC(C)CN([C@H](CO)CCCCNC(=O)[C@@H](NC(=O)N(C)C)C(c1ccccc1)c1ccccc1)S(=O)(=O)c1ccc(N)cc1` [Example 94, (2S,5S)-N-{5-[(4-Amino-benzenesulfonyl)-isobutyl-amino]-6-hydroxy-hexyl}-2-(3,3-dimethyl-ureido)-3,3-diphenyl-propionamide], the pKi was greater than 8.42.

Take `CC(C)CN([C@H](CO)CCCCNC(=O)[C@@H](NC(=O)OCc1ccccn1)C(c1ccccc1)c1ccccc1)S(=O)(=O)c1ccc(N)cc1` [Example 95, (1S,5S)-(1-{5-[(4-Amino-benzenesulfonyl)-isobutyl-amino]-6-hydroxy-hexylcarbamoyl}-2,2-diphenyl-ethyl)-carbamic Acid Pyridin-2-ylmethyl Ester]: the pKi is greater than 8.42.

Compound `CC(C)CN([C@H](CO)CCCCNC(=O)[C@@H](NC(=O)c1ccccn1)C(c1ccccc1)c1ccccc1)S(=O)(=O)c1ccc(N)cc1` [Example 96, (1S,5S)-Pyridine-2-carboxylic Acid (1-{5-[(4-Amino-benzenesulfonyl)-isobutyl-amino]-6-hydroxy-hexylcarbamoyl}-2,2-diphenyl-ethyl)-amide] gave a pKi greater than 8.42.

Take `CC(C)CN([C@H](CO)CCCCNC(=O)[C@@H](NC(=O)c1cnccn1)C(c1ccccc1)c1ccccc1)S(=O)(=O)c1ccc(N)cc1` [Example 97, (1S,5S)-Pyrazine-2-carboxylic Acid (1-{5-[(4-Amino-benzenesulfonyl)-isobutyl-amino]-6-hydroxy-hexylcarbamoyl}-2,2-diphenyl-ethyl)-amide]: the pKi is greater than 8.42.

In turn, `CC(C)CN([C@H](CO)CCCCNC(=O)[C@@H](NC(=O)c1ccc[nH]1)C(c1ccccc1)c1ccccc1)S(=O)(=O)c1ccc(N)cc1` [Example 98, (1S,5S)-Pyrrole-2-carboxylic Acid (1-{5-[(4-Amino-benzenesulfonyl)-isobutyl-amino]-6-hydroxy-hexylcarbamoyl}-2,2-diphenyl-ethyl)-amide] gave a pKi greater than 8.42.

Compound `CC(C)CN([C@H](CO)CCCCNC(=O)[C@@H](NC(=O)Cc1cccnc1)C(c1ccccc1)c1ccccc1)S(=O)(=O)c1ccc(N)cc1` [Example 99, (2S,5S)-N-{5-[(4-Amino-benzenesulfonyl)-isobutyl-amino]-6-hydroxy-hexyl}-3,3-diphenyl-2-(2-pyridin-3-yl-acetylamino)-propionamide] had a pKi greater than 8.42.

As for `CC(C)CN([C@H](CO)CCCCNC(=O)[C@@H](NC(=O)OCc1cccnc1)C(c1ccccc1)c1ccccc1)S(=O)(=O)c1ccc(N)cc1` [Example 100, (1S,5S)-(1-{5-[(4-Amino-benzenesulfonyl)-isobutyl-amino]-6-hydroxy-hexylcarbamoyl}-2,2-diphenyl-ethyl)-carbamic Acid Pyridin-3-ylmethyl Ester], the pKi is greater than 8.42.

`CC(C)CN([C@H](CO)CCCCNC(=O)[C@@H](NC(=O)OCc1ccncc1)C(c1ccccc1)c1ccccc1)S(=O)(=O)c1ccc(N)cc1` [Example 101, (1S,5S)-(1-{5-[(4-Amino-benzenesulfonyl)-isobutyl-amino]-6-hydroxy-hexylcarbamoyl}-2,2-diphenyl-ethyl)-carbamic Acid Pyridin-4-ylmethyl Ester] had a negative-log Ki (pKi) greater than 8.42.

With `CC(C)CN([C@H](CO)CCCCNC(=O)[C@@H](NC(=O)c1ccc(O)cc1)C(c1ccccc1)c1ccccc1)S(=O)(=O)c1ccc(N)cc1` [Example 102, (1S,5S)-N-(1-{5-[(4-Amino-benzenesulfonyl)-isobutyl-amino]-6-hydroxy-hexylcarbamoyl}-2,2-diphenyl-ethyl)-4-hydroxy-benzamide], the negative logarithm of the Ki (pKi) was greater than 8.42.

`CC(C)CN([C@H](CO)CCCCNC(=O)[C@@H](NC(=O)c1ccc(O)c([N+](=O)[O-])c1)C(c1ccccc1)c1ccccc1)S(=O)(=O)c1ccc(N)cc1` [Example 103, (1S,5S)-N-(1-{5-[(4-Amino-benzenesulfonyl)-isobutyl-amino]-6-hydroxy-hexylcarbamoyl}-2,2-diphenyl-ethyl)-4-hydroxy-3-nitro-benzamide]: the pKi is greater than 8.42.

For the origin of these results see patent US6632816B1, “Aromatic derivatives as HIV aspartyl protease inhibitors” (Pharmacor Inc., priority 2002, dated 2003).
